The record followed here is patent US20220370416A1, “COMPOUNDS AND METHODS FOR TARGETED DEGRADATION OF KRAS” (Arvinas Operations, Inc., priority 2020, published 2022).

Each structure is given as a SMILES string.

For the experiment, the target named is HiBit-KRAS^G12C (Homo sapiens, UniProt P01116, G12C). Nature of the experiment: HiBit degradation assay in SW1573 HiBit-KRas^G12C cells. On the set-up: expressed in transfected cells; host or cells: SW1573 (clone E6), modified pcDNA3.1 vector, TK promoter. The following applies: 0.1% DMSO, 24 hours; for Dmax: SW1573, SW1573 HiBit-KRas^G12C, read-out: KRas^G12C-HiBit (SW1573; 0.1% DMSO) Dmax**; for DC50: SW1573 HiBit-KRas^G12C, read-out: KRas^G12C-HIBit (SW1573; 0.1% DMSO) DC50*. In kind it is cell-based. The method, then: Reagents. SW1573 (CRL-2170) and MiaPaCa-2 (CRL-1420) cells were purchased from ATCC. Both cell lines are […] for the G12C mutation in KRAS. SW1573 cells were cultured in DMEM+F12+Glutamax (+Sodium Bicarbonate, +sodium pyruvate, Thermofisher scientific, #10565) supplemented with 10% FBS (Thermofisher scientific, #2060357) and 1% Antibiotic-Antimycotic (Thermofisher scientific, #15240096). MiaPaCa-2 cells were cultured in DMEM+Glutamax media (Thermofisher scientific, #10566) supplemented with 10% FBS (Thermofisher scientific, #2060357) and 1% Antibiotic-Antimycotic (Thermofisher scientific, #15240096). For degradation assays, 384 well plates were purchased from Corning (Corning® CellBIND® 384-well Flat Clear Bottom Black Polystyrene Microplates, Low Flange, #3770). Gambogic acid was purchased from Selleckchem (#S2448). Alamar blue was purchased from Thermofisher scientific (A50101) and used according to manufacturer instructions. The Nano-Glo® HiBit Lytic Detection System and Nano-Glo® HiBit Blotting System were purchased from Promega (#N3050 and #N2410) and used according to manufacturer instructions.
To create the SW1573 HiBit-KRAS^G12C cell line, the nucleotide sequence encoding the 11 amino acid HiBit tag from Promega (Schwinn, M. K. et al. (2018) CRISPR-mediated tagging of endogenous proteins with a luminescent peptide. ACS Chem. Biol. 13(2), 467-474) was appended to the N-terminus of the KRAS^G12C coding sequence. This synthesized DNA was cloned into a modified pcDNA3.1 vector under the control of the thymidine kinase (TK) promoter. This HiBit-KRAS^G12C expressing plasmid was transfected into parental SW1573 cells and colonies were selected using 400 μg/mL zeocin. The resulting clonal lines were screened for expression of HiBit-KRAS^G12C protein using Nano-Glo® HiBit Blotting System. A luminescent band of the correct size for HiBit-KRAS^G12C was detected in several clones. Clone E6 was selected for further studies.
Either SW1573 HiBit-KRas^G12C or MiaPaCa-2 HiBit-KRas^G12C cells were plated at 9000 cells/well in a 384 well plate (Corning #3770). Exemplary heterobifunctional molecules and positive controls were diluted in the appropriate cell media and applied to the plated cells resulting in a final concentration titration of 10 μM to 20 nM in either 0.1% or 0.5% dimethyl sulfoxide (DMSO). Gambogic acid was used as a positive control for cytotoxicity and titrated from 10 μM to 78 nM. All assays were performed in triplicate. Cells were treated with compounds for 24 hours at 37° C. in an incubator containing 5% CO2. Following treatment, alamar blue was used to determine if any compounds led to a loss in cell viability after 24 hours. The 10× alamar blue reagent was added to a final concentration of 1× as recommended by the manufacturer and cells were returned to the incubator for 4 hours. Plates were then allowed to equilibrate to room temperature and fluorescence was measured using a Perkin-Elmer EnVision. After completion of the fluorescence read, the liquid from each well was removed and the cells were washed with PBS. The Nano-Glo® HiBiT detection reagent was prepared according to the manufacturer's instructions and added to each well after the PBS wash was removed. Following incubation at room temperature for 45 minutes, the luminescence was read using the ultra-sensitive luminescence aperture on the Envision instrument.
Fluorescence values from the alamar blue treatment were normalized to the DMSO only control for each compound titration. We hypothesized that compounds that led to a ≥50% loss in cell viability of the KRAS-independent SW1573 HiBit-KRas^G12C cells were likely generally cytotoxic and loss of HiBit-KRAS^G12C signal from these compounds may be due to lower cell number and not specific KRAS^G12C degradation. These points were therefore excluded from the data analysis for degradation. […]

Chain of HiBit-KRAS^G12C (P01116 1-186 isoform P01116-2 G12C limits assumed): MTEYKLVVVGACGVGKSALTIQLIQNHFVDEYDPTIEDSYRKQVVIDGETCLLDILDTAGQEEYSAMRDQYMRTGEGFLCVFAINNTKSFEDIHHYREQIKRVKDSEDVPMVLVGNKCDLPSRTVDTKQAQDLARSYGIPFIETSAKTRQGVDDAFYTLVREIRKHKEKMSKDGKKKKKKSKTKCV

For `C=CC(=O)N1CCN(c2nc(O[C@H](C)CN3CCC(OCCOCCOCCOCCOc4cc(-c5scnc5C)ccc4CNC(=O)[C@@H]4C[C@@H](O)CN4C(=O)[C@H](c4cc(C)no4)C(C)C)CC3)nc3c(F)c(-c4cc(O)cc5ccccc45)c(Cl)cc23)CC1` [Compound 75, (2S,4R)-N-({2-[2-(2-{2-[2-({1-[(2R)-2-{[6-chloro-8-fluoro-7-(3-hydroxynaphthalen-1-yl)-4-[4-(prop-2-enoyl)piperazin-1-yl]quinazolin-2-yl]oxy}propyl]piperidin-4-yl}oxy)ethoxy]ethoxy}ethoxy)ethoxy]-4-(4-methyl-1,3-thiazol-5-yl)phenyl}methyl)-4-hydroxy-1-[(2S)-3-methyl-2-(3-methyl-1,2-oxazol-5-yl)butanoyl]pyrrolidine-2-carboxamide], the Dmax was < 35% and the DC50 was > 1000 nM.
`C=CC(=O)N1CCN(c2nc(O[C@H](C)CN3CCC(OCCOCC(=O)N[C@H](C(=O)N4C[C@H](O)C[C@H]4C(=O)N[C@@H](C)c4ccc(-c5scnc5C)cc4)C(C)(C)C)CC3)nc3c(F)c(-c4cc(O)cc5ccccc45)c(Cl)cc23)CC1` (atropisomer, axis not shown) [Compound 85, (2S,4R)-1-[(2S)-2-{2-[2-({1-[(2R)-2-{[6-chloro-8-fluoro-7-(3-hydroxynaphthalen-1-yl)-4-[4-(prop-2-enoyl)piperazin-1-yl]quinazolin-2-yl]oxy}propyl]piperidin-4-yl}oxy)ethoxy]acetamido}-3,3-dimethylbutanoyl]-4-hydroxy-N-[(1S)-1-[4-(4-methyl-1,3-thiazol-5-yl)phenyl]ethyl]pyrrolidine-2-carboxamide]: the DC50 was > 1000 nM.
Turning to `C=CC(=O)N1CCN(c2nc(O[C@H](C)CN3CC(COCC(=O)N[C@H](C(=O)N4C[C@H](O)C[C@H]4C(=O)N[C@@H](C)c4ccc(-c5scnc5C)cc4)C(C)(C)C)C3)nc3c(F)c(-c4cc(O)cc5ccccc45)c(Cl)cc23)CC1` [Compound 42, (2S,4R)-1-[(2S)-2-[2-({1-[(2R)-2-{[6-chloro-8-fluoro-7-(3-hydroxynaphthalen-1-yl)-4-[4-(prop-2-enoyl)piperazin-1-yl]quinazolin-2-yl]oxy}propyl]azetidin-3-yl}methoxy)acetamido]-3,3-dimethylbutanoyl]-4-hydroxy-N-[(1S)-1-[4-(4-methyl-1,3-thiazol-5-yl)phenyl]ethyl]pyrrolidine-2-carboxamide], the Dmax is < 35% and the DC50 was > 1000 nM.
With `C=CC(=O)N1CCN(c2nc(O[C@H](C)CN3CCC(OCCOCCOCCOCCOCCOCCOCCOCCOCC(=O)N[C@H](C(=O)N4C[C@H](O)C[C@H]4C(=O)N[C@@H](C)c4ccc(-c5scnc5C)cc4)C(C)(C)C)CC3)nc3c(F)c(-c4cc(O)cc5ccccc45)c(Cl)cc23)CC1` [Compound 84, (2S,4R)-1-[(2S)-2-[26-({1-[(2R)-2-{[6-chloro-8-fluoro-7-(3-hydroxynaphthalen-1-yl)-4-[4-(prop-2-enoyl)piperazin-1-yl]quinazolin-2-yl]oxy}propyl]piperidin-4-yl}oxy)-3,6,9,12,15,18,21,24-octaoxahexacosanamido]-3,3-dimethylbutanoyl]-4-hydroxy-N-[(1S)-1-[4-(4-methyl-1,3-thiazol-5-yl)phenyl]ethyl]pyrrolidine-2-carboxamide], the DC50 was > 1000 nM.
With `C=CC(=O)N1CCN(c2nc(O[C@H](C)CN3CCC(COc4cc([C@H](C(=O)N5C[C@H](O)C[C@H]5C(=O)N[C@@H](C)c5ccc(-c6scnc6C)cc5)C(C)C)on4)CC3)nc3c(F)c(-c4cc(O)cc5ccccc45)c(Cl)cc23)CC1` [Compound 19, (2S,4R)-1-[(2R)-2-[3-({1-[(2R)-2-{[6-chloro-8-fluoro-7-(3-hydroxynaphthalen-1-yl)-4-[4-(prop-2-enoyl)piperazin-1-yl]quinazolin-2-yl]oxy}propyl]piperidin-4-yl}methoxy)-1,2-oxazol-5-yl]-3-methylbutanoyl]-4-hydroxy-N-[(1S)-1-[4-(4-methyl-1,3-thiazol-5-yl)phenyl]ethyl]pyrrolidine-2-carboxamide], the DC50 was > 1000 nM.
For `C=CC(=O)N1CCN(c2nc(O[C@H](C)CN3CCC(OCCOCCOCCOCCOCCOCCOCCOCCOCCOCCOCC(=O)N[C@H](C(=O)N4C[C@H](O)C[C@H]4C(=O)N[C@@H](C)c4ccc(-c5scnc5C)cc4)C(C)(C)C)CC3)nc3c(F)c(-c4cc(O)cc5ccccc45)c(Cl)cc23)CC1` [Compound 83, (2S,4R)-1-[(2S)-2-[32-({1-[(2R)-2-{[6-chloro-8-fluoro-7-(3-hydroxynaphthalen-1-yl)-4-[4-(prop-2-enoyl)piperazin-1-yl]quinazolin-2-yl]oxy}propyl]piperidin-4-yl}oxy)-3,6,9,12,15,18,21,24,27,30-decaoxadotriacontanamido]-3,3-dimethylbutanoyl]-4-hydroxy-N-[(1S)-1-[4-(4-methyl-1,3-thiazol-5-yl)phenyl]ethyl]pyrrolidine-2-carboxamide], the DC50 was > 1000 nM.
Turning to `C=CC(=O)N1CCN(c2nc(OC[C@@H]3C[C@@H](OCCOCCOCCOCCOCCOCCOCCOCCOCC(=O)N[C@H](C(=O)N4C[C@H](O)C[C@H]4C(=O)N[C@@H](C)c4ccc(-c5scnc5C)cc4)C(C)(C)C)CN3C)nc3c2CCN(c2cccc4ccccc24)C3)C[C@@H]1CC#N` [Compound 74, (2S,4R)-1-[(2S)-2-(26-{[(3R,5S)-5-[({4-[(3S)-3-(cyanomethyl)-4-(prop-2-enoyl)piperazin-1-yl]-7-(naphthalen-1-yl)-5H,6H,7H,8H-pyrido[3,4-d]pyrimidin-2-yl}oxy)methyl]-1-methylpyrrolidin-3-yl]oxy}-3,6,9,12,15,18,21,24-octaoxahexacosanamido)-3,3-dimethylbutanoyl]-4-hydroxy-N-[(1S)-1-[4-(4-methyl-1,3-thiazol-5-yl)phenyl]ethyl]pyrrolidine-2-carboxamide], the DC50 was > 1000 nM.
With `C=C(F)C(=O)N1CCN(c2nc(O[C@H](C)CN3CCC(COCC(=O)N[C@H](C(=O)N4C[C@H](O)C[C@H]4C(=O)N[C@@H](C)c4ccc(-c5scnc5C)cc4)C(C)(C)C)CC3)nc3c(F)c(-c4cc(O)cc5ccccc45)c(Cl)cc23)CC1` [Compound 27, (2S,4R)-1-[(2S)-2-[2-({1-[(2R)-2-({6-chloro-8-fluoro-4-[4-(2-fluoroprop-2-enoyl)piperazin-1-yl]-7-(3-hydroxynaphthalen-1-yl)quinazolin-2-yl}oxy)propyl]piperidin-4-yl}methoxy)acetamido]-3,3-dimethylbutanoyl]-4-hydroxy-N-[(1S)-1-[4-(4-methyl-1,3-thiazol-5-yl)phenyl]ethyl]pyrrolidine-2-carboxamide], the Dmax is < 35% and the DC50 was > 1000 nM.
`C=CC(=O)N1CCN(c2nc(O[C@H](C)CN3CCC(OCCOc4cc(-c5scnc5C)ccc4CNC(=O)[C@@H]4C[C@@H](O)CN4C(=O)[C@@H](c4cc(C)no4)C(C)C)CC3)nc3c(F)c(-c4cc(O)cc5ccccc45)c(Cl)cc23)CC1` [Compound 78, (2S,4R)-N-({2-[2-({1-[(2R)-2-{[6-chloro-8-fluoro-7-(3-hydroxynaphthalen-1-yl)-4-[4-(prop-2-enoyl)piperazin-1-yl]quinazolin-2-yl]oxy}propyl]piperidin-4-yl}oxy)ethoxy]-4-(4-methyl-1,3-thiazol-5-yl)phenyl}methyl)-4-hydroxy-1-[(2R)-3-methyl-2-(3-methyl-1,2-oxazol-5-yl)butanoyl]pyrrolidine-2-carboxamide]: the DC50 is > 1000 nM.
